Measured values taken from ChEMBL document CHEMBL1201862, “PubChem BioAssay data set” (2004).
Active and inactive are the calls of the source.

How the values were obtained:
[1] = Luminescence Cell-Based Dose Confirmation HTS to Identify Activators of 5'UTR Stem-Loop Driven Alpha-Synuclein mRNA Translation in H4 Neuroglioblastoma Cells. [Related pubchem assays: 1829 (Project Summary), 1814 (Primary HTS)]; type: functional
[2] = Luminescence Cell-Based Dose Response HTS to Identify Activators of Luciferase Translation or Activity in H4 […] Cells. [Related pubchem assays: 1829 (Project Summary), 1814 (Primary HTS)]; type: functional
[3] = test system: H4; test: Luminescence Cell-Based Dose Response HTS to Identify Activators of 5'UTR Stem-Loop Driven Prion Protein mRNA Translation in H4 Neuroglioblastoma Cells. [Related pubchem assays: 1829 (Project Summary), 1814 (Primary HTS)]; type: functional; conditions: Homo sapiens
[4] = molecular target: T1, Polyadenylate-binding protein 1 (Homo sapiens, UniProt P11940); test: MLLE binding blockers, Cy5 peptide tracer – biochemical, fluorescence polarization, Cy5-PAM2 peptide, secondary, miRNA deadenylation inhibitor project, dose response (AID 602260); type: functional; conditions: read-out: IC50_Mean
T1 sequence (P11940 whole entry, the tested form may be a part): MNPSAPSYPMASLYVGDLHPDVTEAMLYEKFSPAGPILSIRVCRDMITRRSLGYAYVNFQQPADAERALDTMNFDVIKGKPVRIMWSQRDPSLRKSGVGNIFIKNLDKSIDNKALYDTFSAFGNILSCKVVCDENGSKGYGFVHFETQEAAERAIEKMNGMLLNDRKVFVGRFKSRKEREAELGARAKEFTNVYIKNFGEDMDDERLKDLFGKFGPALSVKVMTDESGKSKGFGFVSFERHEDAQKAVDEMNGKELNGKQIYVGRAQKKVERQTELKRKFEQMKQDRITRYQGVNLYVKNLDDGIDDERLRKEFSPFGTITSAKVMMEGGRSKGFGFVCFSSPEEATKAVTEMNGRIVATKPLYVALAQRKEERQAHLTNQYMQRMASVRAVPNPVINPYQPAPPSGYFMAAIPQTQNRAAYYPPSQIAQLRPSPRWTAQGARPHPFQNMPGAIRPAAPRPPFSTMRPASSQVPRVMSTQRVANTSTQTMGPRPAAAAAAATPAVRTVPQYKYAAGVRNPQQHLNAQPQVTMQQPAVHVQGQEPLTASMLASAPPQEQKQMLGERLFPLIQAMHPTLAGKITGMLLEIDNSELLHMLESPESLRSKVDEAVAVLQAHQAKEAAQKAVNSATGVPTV

[5] = molecular target: T1, Polyadenylate-binding protein 1; test: MLLE domain peptide-binding blockers, IC50 – biochemical, fluorescence polarization, FITC-PAM2 peptide, dose response (AID 602259); type: functional; conditions: read-out: IC50_Mean
[6] = molecular target: T2, Protein skinhead-1 (Caenorhabditis elegans, UniProt P34707); type: functional
T2 sequence (P34707 whole entry): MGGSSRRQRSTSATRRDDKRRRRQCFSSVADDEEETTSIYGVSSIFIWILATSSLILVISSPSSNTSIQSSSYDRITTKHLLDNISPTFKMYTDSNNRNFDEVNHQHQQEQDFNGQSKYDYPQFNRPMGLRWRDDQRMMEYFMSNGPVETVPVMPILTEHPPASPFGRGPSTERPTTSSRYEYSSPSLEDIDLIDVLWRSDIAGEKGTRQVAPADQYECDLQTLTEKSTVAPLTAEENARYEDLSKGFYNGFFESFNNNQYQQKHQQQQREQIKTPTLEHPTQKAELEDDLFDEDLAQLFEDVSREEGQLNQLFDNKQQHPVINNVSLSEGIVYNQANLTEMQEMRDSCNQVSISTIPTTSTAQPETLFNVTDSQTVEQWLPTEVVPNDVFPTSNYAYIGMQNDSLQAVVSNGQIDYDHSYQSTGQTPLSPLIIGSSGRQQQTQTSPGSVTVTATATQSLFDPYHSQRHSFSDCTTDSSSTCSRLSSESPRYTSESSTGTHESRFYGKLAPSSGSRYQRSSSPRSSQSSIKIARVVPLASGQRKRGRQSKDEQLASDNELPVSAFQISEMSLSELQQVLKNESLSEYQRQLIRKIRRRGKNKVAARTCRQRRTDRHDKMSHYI

[7] = molecular target: T3, Fatty acid synthase (Homo sapiens, UniProt P49327); test: inhibition of human FAS-TE enzyme activity – biochemical, endpoint fluorescence intensity, uHTS hits, dose response (AID 624327); type: functional;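 note: fluorescence from hydrolysis of an O-methyl fluorescein acyl ester substrate by the enzyme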
T3 sequence (P49327 whole entry): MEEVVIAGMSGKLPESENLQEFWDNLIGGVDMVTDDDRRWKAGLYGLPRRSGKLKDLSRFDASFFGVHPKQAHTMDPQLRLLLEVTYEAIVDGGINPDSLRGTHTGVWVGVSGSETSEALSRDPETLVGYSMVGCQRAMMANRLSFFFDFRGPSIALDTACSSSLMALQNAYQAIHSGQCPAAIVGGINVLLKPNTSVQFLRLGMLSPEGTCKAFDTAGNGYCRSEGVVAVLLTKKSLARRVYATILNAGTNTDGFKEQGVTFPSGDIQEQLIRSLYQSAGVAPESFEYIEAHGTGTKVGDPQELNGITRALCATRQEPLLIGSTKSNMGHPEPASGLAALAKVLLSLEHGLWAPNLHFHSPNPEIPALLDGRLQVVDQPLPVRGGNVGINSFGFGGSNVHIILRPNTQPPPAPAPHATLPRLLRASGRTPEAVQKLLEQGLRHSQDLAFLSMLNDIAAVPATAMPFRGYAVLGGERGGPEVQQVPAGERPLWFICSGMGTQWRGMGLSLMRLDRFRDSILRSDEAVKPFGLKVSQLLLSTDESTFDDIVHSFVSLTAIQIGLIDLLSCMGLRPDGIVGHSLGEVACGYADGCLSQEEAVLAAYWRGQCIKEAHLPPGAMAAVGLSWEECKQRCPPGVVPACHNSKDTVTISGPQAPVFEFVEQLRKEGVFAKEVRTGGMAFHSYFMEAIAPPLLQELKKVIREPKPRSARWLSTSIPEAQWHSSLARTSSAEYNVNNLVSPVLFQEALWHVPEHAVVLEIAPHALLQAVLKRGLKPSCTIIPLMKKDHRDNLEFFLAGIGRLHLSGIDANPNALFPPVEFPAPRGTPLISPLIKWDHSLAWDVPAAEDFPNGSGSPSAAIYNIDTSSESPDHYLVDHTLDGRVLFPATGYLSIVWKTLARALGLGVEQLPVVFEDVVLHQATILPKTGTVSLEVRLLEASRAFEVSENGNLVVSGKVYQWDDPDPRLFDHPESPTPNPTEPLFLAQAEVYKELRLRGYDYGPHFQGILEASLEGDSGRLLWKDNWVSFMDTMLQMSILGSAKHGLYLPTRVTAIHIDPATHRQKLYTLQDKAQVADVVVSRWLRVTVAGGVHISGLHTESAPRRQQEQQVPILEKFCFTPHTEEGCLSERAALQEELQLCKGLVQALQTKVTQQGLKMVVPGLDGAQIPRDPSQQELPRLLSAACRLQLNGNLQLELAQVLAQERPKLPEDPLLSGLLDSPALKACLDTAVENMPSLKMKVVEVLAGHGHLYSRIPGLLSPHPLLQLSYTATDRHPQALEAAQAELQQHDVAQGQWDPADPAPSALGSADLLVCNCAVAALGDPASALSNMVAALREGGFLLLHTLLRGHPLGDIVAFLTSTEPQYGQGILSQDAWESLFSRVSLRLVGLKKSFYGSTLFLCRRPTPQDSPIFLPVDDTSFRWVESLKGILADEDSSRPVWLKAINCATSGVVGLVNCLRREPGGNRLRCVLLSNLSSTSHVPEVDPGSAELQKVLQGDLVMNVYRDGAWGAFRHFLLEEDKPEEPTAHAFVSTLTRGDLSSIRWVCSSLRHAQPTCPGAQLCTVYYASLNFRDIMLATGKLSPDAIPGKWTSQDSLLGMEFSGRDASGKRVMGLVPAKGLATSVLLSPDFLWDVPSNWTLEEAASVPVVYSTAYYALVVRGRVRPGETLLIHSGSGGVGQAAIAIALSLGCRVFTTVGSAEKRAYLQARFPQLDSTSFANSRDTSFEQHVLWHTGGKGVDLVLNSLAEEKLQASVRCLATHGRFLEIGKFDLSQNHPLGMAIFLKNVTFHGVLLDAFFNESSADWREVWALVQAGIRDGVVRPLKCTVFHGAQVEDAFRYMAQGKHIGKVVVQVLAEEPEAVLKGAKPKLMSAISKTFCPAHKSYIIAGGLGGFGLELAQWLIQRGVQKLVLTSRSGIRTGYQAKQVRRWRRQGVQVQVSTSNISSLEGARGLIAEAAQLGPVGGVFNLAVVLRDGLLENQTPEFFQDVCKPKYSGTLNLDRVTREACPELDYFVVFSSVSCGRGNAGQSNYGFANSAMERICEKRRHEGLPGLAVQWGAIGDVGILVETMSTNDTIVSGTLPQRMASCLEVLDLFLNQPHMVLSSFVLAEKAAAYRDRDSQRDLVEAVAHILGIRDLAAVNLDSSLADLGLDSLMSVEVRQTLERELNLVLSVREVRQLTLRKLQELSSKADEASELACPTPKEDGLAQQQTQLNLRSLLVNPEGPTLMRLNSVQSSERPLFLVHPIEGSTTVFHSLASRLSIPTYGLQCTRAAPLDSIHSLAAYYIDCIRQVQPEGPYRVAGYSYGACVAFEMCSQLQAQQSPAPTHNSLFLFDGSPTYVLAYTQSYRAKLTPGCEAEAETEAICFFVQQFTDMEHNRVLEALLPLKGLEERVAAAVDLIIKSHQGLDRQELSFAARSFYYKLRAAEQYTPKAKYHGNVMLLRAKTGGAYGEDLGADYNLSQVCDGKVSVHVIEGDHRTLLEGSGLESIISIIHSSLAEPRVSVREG

[8] = molecular target: T3, Fatty acid synthase; test: inhibition of human FAS-TE enzyme activity – biochemical, kinetic fluorescence intensity, dose response (AID 624326); type: functional;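 note: rate of fluorescence rise from hydrolysis of a fluorogenic O-methyl fluorescein ester substrate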
[9] = reduction of Shn3 3'UTR-driven luciferase in osteoblasts – cell-based, Clone20 osteoblasts, firefly luciferase, cherry-picked, dose response (AID 624132); type: functional;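 note: firefly luciferase luminescence from reporter carrying the Shn3 3'UTR in osteoblasts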
[10] = loss of viability in HepG2 cells – cell-based, CellTiter-Glo, cherry-picked, cytotoxicity control for Shn3 inhibitor project, dose response (AID 624134); type: functional
[11] = non-specific 3'UTR reporter inhibition in Clone20-Shn3RL – cell-based, Renilla luciferase, cherry-picked, counter-screen for Shn3 inhibitor project, dose response (AID 624133); type: functional
[12] = molecular target: T4, Heat shock factor protein 1 (Mus musculus, UniProt P38532); test: decrease of HSF1-responsive luciferase luminescence – cell-based, NIH3T3, dose retest, confirmation (AID 2382); type: functional;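 note: NIH3T3 fibroblasts with HSF1-driven luciferase reporter stressed by proteasome inhibitor MG132; luminescence from HSF1-driven luciferase expression after 8 hours of MG132 stress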
T4 sequence (P38532 whole entry): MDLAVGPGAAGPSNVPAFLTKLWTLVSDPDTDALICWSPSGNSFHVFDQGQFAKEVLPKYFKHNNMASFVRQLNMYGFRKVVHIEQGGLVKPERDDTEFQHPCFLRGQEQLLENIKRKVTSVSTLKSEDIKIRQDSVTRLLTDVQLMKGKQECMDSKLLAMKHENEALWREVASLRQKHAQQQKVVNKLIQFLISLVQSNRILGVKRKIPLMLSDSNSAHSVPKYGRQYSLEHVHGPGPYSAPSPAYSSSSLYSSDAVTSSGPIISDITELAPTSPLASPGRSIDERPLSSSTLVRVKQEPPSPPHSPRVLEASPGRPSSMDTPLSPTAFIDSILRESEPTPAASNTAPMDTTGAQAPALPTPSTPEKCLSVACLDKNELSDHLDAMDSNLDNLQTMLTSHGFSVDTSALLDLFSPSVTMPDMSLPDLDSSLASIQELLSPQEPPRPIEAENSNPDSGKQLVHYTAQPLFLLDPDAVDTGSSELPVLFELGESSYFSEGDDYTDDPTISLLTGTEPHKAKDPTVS

[13] = cells; type: functional, cell-based
[14] = cells; type: functional, cell-based; remark: listed apart in the source
[15] = molecular target: T5, Replicative DNA helicase DnaB (Mycobacterium tuberculosis, UniProt P9WMR3); test: DnaB intein splicing inhibitors, dose response, biochemical, cell-free fluorescence (AID 449749); type: functional
T5 sequence (P9WMR3 whole entry): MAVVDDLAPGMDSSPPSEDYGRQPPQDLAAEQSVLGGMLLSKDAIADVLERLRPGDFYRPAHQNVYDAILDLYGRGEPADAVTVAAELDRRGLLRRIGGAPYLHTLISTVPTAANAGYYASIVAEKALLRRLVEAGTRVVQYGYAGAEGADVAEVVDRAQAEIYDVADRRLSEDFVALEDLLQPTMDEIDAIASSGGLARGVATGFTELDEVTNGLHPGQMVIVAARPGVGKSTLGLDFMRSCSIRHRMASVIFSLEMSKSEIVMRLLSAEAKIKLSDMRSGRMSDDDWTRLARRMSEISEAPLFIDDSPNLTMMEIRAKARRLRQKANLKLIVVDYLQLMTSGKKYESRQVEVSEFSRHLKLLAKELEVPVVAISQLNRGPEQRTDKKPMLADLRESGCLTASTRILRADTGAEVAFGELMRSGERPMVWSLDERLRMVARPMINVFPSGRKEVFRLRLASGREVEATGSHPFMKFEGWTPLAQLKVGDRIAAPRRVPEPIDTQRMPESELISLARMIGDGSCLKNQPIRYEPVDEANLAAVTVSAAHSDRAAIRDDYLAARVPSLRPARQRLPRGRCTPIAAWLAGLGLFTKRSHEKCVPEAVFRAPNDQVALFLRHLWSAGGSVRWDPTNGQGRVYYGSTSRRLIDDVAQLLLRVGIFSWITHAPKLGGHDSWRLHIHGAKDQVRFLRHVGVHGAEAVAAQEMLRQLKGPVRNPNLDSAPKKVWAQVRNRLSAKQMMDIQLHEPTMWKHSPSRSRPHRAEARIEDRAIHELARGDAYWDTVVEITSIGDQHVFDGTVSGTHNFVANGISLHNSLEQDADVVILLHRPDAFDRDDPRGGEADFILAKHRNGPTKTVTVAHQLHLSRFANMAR

[16] = molecular target: T6, Protein RecA (Mycobacterium tuberculosis, UniProt P9WHJ3); test: Fluorescence Cell-Free Homogeneous Dose Retest to Identify Inhibitors of RecA-Intein Splicing Activity. [Related pubchem assays (depositor defined):AID2097, AID2223, AID489010, AID492950]; type: functional
T6 sequence (P9WHJ3 whole entry): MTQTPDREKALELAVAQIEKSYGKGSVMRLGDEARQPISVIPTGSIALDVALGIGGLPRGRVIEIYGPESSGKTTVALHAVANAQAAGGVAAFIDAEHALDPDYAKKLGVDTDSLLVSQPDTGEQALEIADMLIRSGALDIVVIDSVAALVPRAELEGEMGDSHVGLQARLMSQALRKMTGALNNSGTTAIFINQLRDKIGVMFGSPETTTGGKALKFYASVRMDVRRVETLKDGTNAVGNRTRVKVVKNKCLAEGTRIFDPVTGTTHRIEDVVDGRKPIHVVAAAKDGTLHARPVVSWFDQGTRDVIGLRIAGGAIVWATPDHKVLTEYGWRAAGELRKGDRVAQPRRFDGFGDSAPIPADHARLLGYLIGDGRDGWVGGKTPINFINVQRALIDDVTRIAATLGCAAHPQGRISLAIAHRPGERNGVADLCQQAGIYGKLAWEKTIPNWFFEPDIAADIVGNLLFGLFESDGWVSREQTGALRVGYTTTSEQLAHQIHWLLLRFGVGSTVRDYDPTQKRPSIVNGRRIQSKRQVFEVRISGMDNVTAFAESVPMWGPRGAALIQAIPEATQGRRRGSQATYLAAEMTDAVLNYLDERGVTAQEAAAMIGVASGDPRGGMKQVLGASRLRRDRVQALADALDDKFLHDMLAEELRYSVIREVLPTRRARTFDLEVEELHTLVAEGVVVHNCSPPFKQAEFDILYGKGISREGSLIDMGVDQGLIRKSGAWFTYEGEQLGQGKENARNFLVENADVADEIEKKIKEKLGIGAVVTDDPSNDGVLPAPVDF

[17] = NIH-3T3 fibroblast cytotoxicity, dose response, cytotoxicity control, cell-based, fluorescence, Alamar Blue, secondary assay (AID 2327); type: functional;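 note: NIH-3T3 mouse fibroblasts cultured with fluconazole at 8 µg/mL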
[18] = fluconazole-exposed Candida albicans growth modulators – fluorescence, retest, confirmation (AID 2467); type: functional, cell-based

Cc1nnsc1[S+]([O-])c1ccc(Br)cc1 (stereo not given)
EC50 [1]: 21.9 µM (active) | EC50 [2]: 6.67 µM (active) | EC50 [3]: > 120 µM (not active)

C1=C(CCNc2[nH]cnc3ncnc2-3)CCCC1
EC50 [1]: 52.3 µM (active) | EC50 [2]: 20 µM (active) | EC50 [3]: 40 µM (active)

Cc1ccc(CN(CC(=O)NC2CCCC2)C(=O)CSc2nnc(COc3ccccc3)o2)cc1
IC50 [4]: > 66 µM (inactive) | IC50 [5]: > 66 µM (inactive)

O=C(Oc1ccccc1)N1CCN(c2ccc(F)cc2)CC1
IC50 [6]: 78.7 µM (inactive)

O=C(Nc1ccccc1[N+](=O)[O-])c1ccc(S(=O)(=O)N2CCCC2)cc1
EC50 [1]: 10.8 µM (active) | EC50 [2]: 9.21 µM (active) | EC50 [3]: 14.6 µM (active)

CC(=O)c1ccc(NC(S)=NCCc2ccc(S(N)(=O)=O)cc2)cc1
IC50 [4]: > 66 µM (inactive) | IC50 [5]: > 66 µM (inactive)

CC(C)(C)NC(=O)/C(=C\C=C\c1ccccc1)NC(=O)c1ccc([N+](=O)[O-])cc1
IC50 [7]: 0.491 µM (active) | IC50 [8]: 0.462 µM (active)

Cc1ccc(CC(=O)Nc2ccncc2)cc1
AC50 [9]: 2.39 µM (active) | AC50 [10]: 3.99 µM (active) | AC50 [11]: 15.2 µM (active)

O=[N+]([O-])c1cccc(-c2ccc(SCc3cccnc3)nn2)c1
IC50 [7]: 8.53 µM (active) | IC50 [8]: 8.99 µM (active)

Clc1ccc(Nc2nc3cccnc3s2)cc1
EC50 [1]: 0.341 µM (active) | EC50 [2]: 0.333 µM (active)

COc1cccc(OCCn2cc(C(C)=O)c3ccccc32)c1
AC50 [9]: 1.85 µM (active) | AC50 [10]: 7.55 µM (active) | AC50 [11]: 7.82 µM (active)

CCCCNC(=O)CN1C(=O)c2cccc(N)c2C1=O
IC50 [4]: > 66 µM (inactive) | IC50 [5]: 31.6 µM (inactive)

O=C(NNS(=O)(=O)c1ccc([N+](=O)[O-])cc1)c1ccc2ccccc2c1O
IC50 [7]: 7.74 µM (active) | IC50 [8]: 6.99 µM (active)

O=C(COc1ncnc2ccccc12)Nc1ccc(Cl)c([N+](=O)[O-])c1
IC50 [7]: 8.42 µM (active) | IC50 [8]: 6.52 µM (active)

Cc1ccc(C2CCN(C(S)=NC(C)(C)C)C2)cc1 (stereo not given)
EC50 [1]: 14.9 µM (active) | EC50 [2]: 18.1 µM (active) | EC50 [3]: 62.4 µM (active) | EC50 [12]: > 195 µM (not active)

COC(=O)C1=C(C(=O)OC)[C@@H]2N(Cc3ccccc3)c3ccccc3[C@@]23C[C@@H](C(=O)OC)N(C(=O)c2ccc(Br)cc2)C3=N1
AC50 [9]: 8.52 µM (active) | AC50 [10]: 34.8 µM (active) | AC50 [11]: 23.7 µM (active)

O=S(=O)(CCSc1nc2ccccc2s1)c1nc2ccccc2s1
EC50 [13]: > 350 µM (not active) | EC50 [14]: > 350 µM (not active) | AC50 [15]: 2.29 µM (active) | EC50 [16]: 2.22 µM (active)

c1ccc(P(c2ccccc2)c2ccccn2)cc1
IC50 [4]: > 66 µM (inactive) | IC50 [5]: > 66 µM (inactive)

NS(=O)(=O)c1ccc(NC(=S)NC(=O)c2ccc(-c3ccccc3)cc2)cc1
IC50 [4]: > 66 µM (inactive) | IC50 [5]: > 66 µM (inactive)

CCN(CC)S(=O)(=O)c1ccc(N(C)Cc2cccc(OC)c2OC)nc1
AC50 [10]: 57.1 µM (active)

CCOC(=O)C1CCCN(C(=O)c2ccc3oc(CCc4ccccc4)nc3c2)C1 (stereo not given)
EC50 [17]: > 150 µM (inactive) | EC50 [13]: > 350 µM (not active) | EC50 [18]: > 38 µM (not active) | EC50 [14]: > 350 µM (not active)

NC(=NOC(=O)CCC1CCCC1)c1cccc([N+](=O)[O-])c1
IC50 [7]: 7.47 µM (active) | IC50 [8]: 4.54 µM (active)

Cc1ccc2c(c1)sc(C)[n+]2CCCS(=O)(=O)[O-]
IC50 [4]: > 66 µM (inactive) | IC50 [5]: > 66 µM (inactive)

CC(CC(=O)Nc1nnc(C(C)(C)C)s1)c1ccccc1 (stereo not given)
IC50 [4]: > 66 µM (inactive) | IC50 [5]: > 66 µM (inactive)

C=C(C)CSc1ncc(-c2cccc(C(F)(F)F)c2)cn1
IC50 [7]: 13.3 µM (active) | IC50 [8]: 6.31 µM (active)

COc1cc(C)c(NC(=O)COc2cccc3c2OC(C)(C)C3)cc1OC
AC50 [9]: 7.06 µM (active) | AC50 [10]: 65.7 µM (active) | AC50 [11]: 11.3 µM (active)

CC12CC3(C)CC(C)(C1)CC(C(=O)NC(=S)NC(C)(C)C)(C2)C3
IC50 [4]: > 66 µM (inactive) | IC50 [5]: > 66 µM (inactive)
